Counter-ions that a name gives are not always drawn.
Experiments:
patients with GIST = conditions: initial dose 400 mg/day, 345 patients; cited from earlier work
[1] = tested on: patients with advanced GIST; conditions: cited from earlier work
[2] = tested on: imatinib-resistant HMC-1α155 cells; assay: Apoptosis assay by Propidium Iodide staining on imatinib-resistant cells; type: cell-based, human; conditions: imatinib-resistant HMC-1α155 cells exposed to 1 μM
Experimental: HMC-1 is a human mast cell line derived from a patient with mast cell leukaemia. The cell line used in this study, HMC-1α155, is a clone derived from the original population expressing endogenous Kit bearing the mutation Val 560 to Gly. […] The medium used in this case was a RPMI medium containing L-glutamine (Cambrex cat#12-702F) supplemented with 100 U/mL penicillin and 100 μg/mL streptomycin (Cambrex 100× penicilline/streptomycine mixture cat #17-602E), and with 10% v/v foetal calf serum (AbCys Lot S02823S1800) which has been previously heat-inactivated 30 minutes at 56° C. (RPMI 10). The medium containing the drugs was replaced with fresh one every 3-4 days. […] The principle behind the method for apoptosis assay by Propidium Iodide Staining (PI staining) is as follows: during apoptosis, DNA breakup causes small fragments of DNA to be free in the nucleus. Following appropriate elution with citrate buffer, these fragments are lost from the nucleus. As these cells now have a lower DNA content, subsequent staining with a DNA binding dye will reveal these cells in the sub-G1 region.

[3] = tested on: patients with advanced GIST; assay: Phase 2 clinical trial, response rate according to RECIST (CT); type: in vivo, human; conditions: 2 months (N = 30)
From the text: Methods; Patients: Patients enrolled in this study were aged over 18 years with inoperable, non-pretreated, histologically proven locally advanced or metastatic, c-Kit positive GIST. […] Exclusion criteria included: inadequate organ function defined via blood tests, severe liver or cardiac failure, and severe neurological or psychiatric disorders. Patients receiving a concomitant treatment within 4 weeks before inclusion, and pregnant or lactating women were also excluded. […] Methods; Statistical analyses: Simon […] two-stage design was used for this prospective, multicenter, single-group, phase II trial. Fourteen patients were initially enrolled, with recruitment of an additional ten patients being dependent on the occurrence of at least one objective RECIST response. This population was further extended to a total of 30 patients to ensure a sufficient evaluable population for all end-points; the type I(α) error was 5% (two-sided) for all analyses. Quantitative variables were described by the number of filled and missing data, mean, standard deviation, median, minimum and maximum. Qualitative variables were described by the number of missing data and, for each modality, frequency and percentage (referring to filled data). Time-to-event data were described using Kaplan-Meier (KM) estimates. The median was provided with its 95% confidence interval (95% CI). […]

[4] = tested on: patients with advanced GIST; assay: Phase 2 clinical trial, metabolic response (FDG-PET); type: in vivo, human; conditions: At 1 month (N = 13)
From the text: (§1) Methods; Patients: Patients enrolled in this study were aged over 18 years with inoperable, non-pretreated, histologically proven locally advanced or metastatic, c-Kit positive GIST. […] Exclusion criteria included: inadequate organ function defined via blood tests, severe liver or cardiac failure, and severe neurological or psychiatric disorders. Patients receiving a concomitant treatment within 4 weeks before inclusion, and pregnant or lactating women were also excluded.

[5] = tested on: patients with advanced GIST; assay: Phase 2 clinical trial, time-to-event analysis (PFS, OS); type: in vivo, human
From the text: Methods; Patients: Patients enrolled in this study were aged over 18 years with inoperable, non-pretreated, histologically proven locally advanced or metastatic, c-Kit positive GIST. […] Exclusion criteria included: inadequate organ function defined via blood tests, severe liver or cardiac failure, and severe neurological or psychiatric disorders. Patients receiving a concomitant treatment within 4 weeks before inclusion, and pregnant or lactating women were also excluded. […] Time-to-event analyses were calculated from the date of first masitinib intake to the date of event (documented progression or death). Patients who had not progressed at the date of last tumor assessment were censored at that date for PFS. Patients alive at the time of the analysis were censored at the date of last contact for OS. Methods; Statistical analyses: Simon […] two-stage design was used for this prospective, multicenter, single-group, phase II trial. Fourteen patients were initially enrolled, with recruitment of an additional ten patients being dependent on the occurrence of at least one objective RECIST response. This population was further extended to a total of 30 patients to ensure a sufficient evaluable population for all end-points; the type I(α) error was 5% (two-sided) for all analyses. Quantitative variables were described by the number of filled and missing data, mean, standard deviation, median, minimum and maximum. Qualitative variables were described by the number of missing data and, for each modality, frequency and percentage (referring to filled data). Time-to-event data were described using Kaplan-Meier (KM) estimates. The median was provided with its 95% confidence interval (95% CI). PFS rates were given every 6 months with KM estimates. All data analyses and reporting procedures used SAS v9.1 in a Windows XP operating system environment.

[6] = tested on: patients with advanced GIST; assay: Phase 2 clinical trial, safety assessment (adverse events, NCI CTCAE v3.0); type: in vivo, human; conditions: for Abdominal Pain / Abdominal Pain Upper / Anaemia / Asthenia / Diarrhoea / Dry Skin / Erythema / Eye Oedema / Eyelid Oedema / Lacrimation Increased / Mucosal Inflammation / Muscle Spasms / Myalgia / Nausea / Neutropenia / Oedema Peripheral / Pruritus / Rash / Vomiting: N = 30
From the text: as §1, with “excluded. […] All adverse events (AEs), including abnormal serology or haematology, were recorded regardless of causality.” for “excluded.”

[7] = tested on: patients with advanced GIST; conditions: after 2 months of masitinib; cited from earlier work

Cc1ccc(NC(=O)c2ccc(CN3CCN(C)CC3)cc2)cc1Nc1nccc(-c2cccnc2)n1 [imatinib]
2-year PFS rate (patients with GIST): 46%
2-year survival (patients with GIST): 72%
3-year survival (patients with GIST): ~61%
Median PFS (patients with GIST): 18 months
Median overall survival (OS) (patients with GIST): 55 months
2-year survival rate of patients with advanced GIST ([1]; after introduction of imatinib (pre-imatinib 25%)): about 70%
Patients with early resistance (progression within first 6 months, no response) ([1]; in vivo): 10-15%

Cc1ccc(NC(=O)c2ccc(CN3CCN(C)CC3)cc2)cc1Nc1nc(-c2cccnc2)cs1 [masitinib, 4-(4-methylpiperazin-1-ylmethyl)-N-[4-methyl-3-(4-pyridin-3-ylthiazol-2-ylamino)phenyl]benzamide-mesylate methane sulfonic acid salt]
% apoptosis (cells in apoptosis with respect to overall cells) [2]: More than 45%
Response (RECIST) CR + PR + SD (disease control rate), % [3]: (96.7%) [82.8; 99.9]
Response (RECIST) CR, % ([3]; 7.5 mg/kg/day oral): (0.0%)
Metabolic response CMR + PMR (metabolic response rate), % [4]: (69.2%)
Metabolic response CMR, % [4]: (0.0%)
OS rates (%) [95% CI] ([5]; 12 months): 96.7%
PFS rate (%) [95% CI] ([5]; 24 months): 60%
PFS rate (%) [95% CI] ([5]; 36 months): 55%
Abdominal Pain ([6]; All causalities, All grades): 16 (53.3%) Number (%) of patients
Abdominal Pain Upper ([6]; All causalities, All grades): 9 (30.0%) Number (%) of patients
Anaemia ([6]; All causalities, All grades): 6 (20.0%) Number (%) of patients
Asthenia ([6]; All causalities, All grades): 27 (90.0%) Number (%) of patients
Diarrhoea ([6]; All causalities, All grades): 18 (60.0%) Number (%) of patients
Dry Skin ([6]; All causalities, All grades): 4 (13.3%) Number (%) of patients
Erythema ([6]; All causalities, All grades): 6 (20.0%) Number (%) of patients
Eye Oedema ([6]; All causalities, All grades): 14 (46.7%) Number (%) of patients
Eyelid Oedema ([6]; All causalities, All grades): 7 (23.3%) Number (%) of patients
Lacrimation Increased ([6]; All causalities, All grades): 4 (13.3%) Number (%) of patients
Mucosal Inflammation ([6]; All causalities, All grades): 5 (16.7%) Number (%) of patients
Muscle Spasms ([6]; All causalities, All grades): 12 (40.0%) Number (%) of patients
Myalgia ([6]; All causalities, All grades): 4 (13.3%) Number (%) of patients
Nausea ([6]; All causalities, All grades): 15 (50.0%) Number (%) of patients
Neutropenia ([6]; All causalities, All grades): 5 (16.7%) Number (%) of patients
Oedema Peripheral ([6]; All causalities, All grades): 8 (26.7%) Number (%) of patients
Pruritus ([6]; All causalities, All grades): 11 (36.7%) Number (%) of patients
Rash ([6]; All causalities, All grades): 12 (40.0%) Number (%) of patients
Vomiting ([6]; All causalities, All grades): 10 (33.3%) Number (%) of patients
Abdominal Pain ([6]; All causalities, G3 + G4): 2 (6.7%) Number (%) of patients
Anaemia ([6]; All causalities, G3 + G4): 1 (3.3%) Number (%) of patients
Asthenia ([6]; All causalities, G3 + G4): 1 (3.3%) Number (%) of patients
Diarrhoea ([6]; All causalities, G3 + G4): 1 (3.3%) Number (%) of patients
Eye Oedema ([6]; All causalities, G3 + G4): 1 (3.3%) Number (%) of patients
Mucosal Inflammation ([6]; All causalities, G3 + G4): 1 (3.3%) Number (%) of patients
Neutropenia ([6]; All causalities, G3 + G4): 2 (6.7%) Number (%) of patients
Pruritus ([6]; All causalities, G3 + G4): 1 (3.3%) Number (%) of patients
Rash ([6]; All causalities, G3 + G4): 3 (10.0%) Number (%) of patients
Patients reporting at least one treatment-related AE ([6]; ITT N = 30): All patients
Treatment-related toxicity per patient: abdominal pain ([6]; ITT N = 30): 33%
Treatment-related toxicity per patient: asthenia ([6]; ITT N = 30): 83%
Treatment-related toxicity per patient: cutaneous rash ([6]; ITT N = 30): 40%
Treatment-related toxicity per patient: diarrhoea ([6]; ITT N = 30): 57%
Treatment-related toxicity per patient: eye oedema ([6]; ITT N = 30): 47%
Treatment-related toxicity per patient: muscle spasms ([6]; ITT N = 30): 40%
Treatment-related toxicity per patient: nausea ([6]; ITT N = 30): 47%
Treatment-related toxicity per patient: peripheral oedema ([6]; ITT N = 30): 20%
Treatment-related toxicity per patient: pruritus ([6]; ITT N = 30): 33%
Treatment-related toxicity per patient: upper abdominal pain ([6]; ITT N = 30): 23%
Treatment-related toxicity per patient: vomiting ([6]; ITT N = 30): 23%
Abdominal Pain ([6]; Suspected, All grades): 10 (33.3%) Number (%) of patients
Abdominal Pain Upper ([6]; Suspected, All grades): 7 (23.3%) Number (%) of patients
Anaemia ([6]; Suspected, All grades): 4 (13.3%) Number (%) of patients
Asthenia ([6]; Suspected, All grades): 25 (83.3%) Number (%) of patients
Diarrhoea ([6]; Suspected, All grades): 17 (56.7%) Number (%) of patients
Dry Skin ([6]; Suspected, All grades): 4 (13.3%) Number (%) of patients
Erythema ([6]; Suspected, All grades): 5 (16.7%) Number (%) of patients
Eye Oedema ([6]; Suspected, All grades): 14 (46.7%) Number (%) of patients
Eyelid Oedema ([6]; Suspected, All grades): 7 (23.3%) Number (%) of patients
Lacrimation Increased ([6]; Suspected, All grades): 4 (13.3%) Number (%) of patients
Mucosal Inflammation ([6]; Suspected, All grades): 5 (16.7%) Number (%) of patients
Muscle Spasms ([6]; Suspected, All grades): 12 (40.0%) Number (%) of patients
Myalgia ([6]; Suspected, All grades): 4 (13.3%) Number (%) of patients
Nausea ([6]; Suspected, All grades): 14 (46.7%) Number (%) of patients
Neutropenia ([6]; Suspected, All grades): 5 (16.7%) Number (%) of patients
Oedema Peripheral ([6]; Suspected, All grades): 6 (20.0%) Number (%) of patients
Pruritus ([6]; Suspected, All grades): 10 (33.3%) Number (%) of patients
Rash ([6]; Suspected, All grades): 12 (40.0%) Number (%) of patients
Vomiting ([6]; Suspected, All grades): 7 (23.3%) Number (%) of patients
Abdominal Pain ([6]; Suspected, G3 + G4): 1 (3.3%) Number (%) of patients
Anaemia ([6]; Suspected, G3 + G4): 1 (3.3%) Number (%) of patients
Asthenia ([6]; Suspected, G3 + G4): 1 (3.3%) Number (%) of patients
Diarrhoea ([6]; Suspected, G3 + G4): 1 (3.3%) Number (%) of patients
Eye Oedema ([6]; Suspected, G3 + G4): 1 (3.3%) Number (%) of patients
Mucosal Inflammation ([6]; Suspected, G3 + G4): 1 (3.3%) Number (%) of patients
Neutropenia ([6]; Suspected, G3 + G4): 2 (6.7%) Number (%) of patients
Pruritus ([6]; Suspected, G3 + G4): 1 (3.3%) Number (%) of patients
Rash ([6]; Suspected, G3 + G4): 3 (10.0%) Number (%) of patients
Cardiac side-effects ([6]; to date): no cardiac side-effects have been observed
Patients with tumour response assessed with DCE-US [7]: 75%
